Literature values in patent EP4605403B1, “METHOD AND COMPOSITION FOR OLIGONUCLEOTIDE SYNTHESIS” (Bachem Holding AG, priority 2022, dated 2024).

Conditions: protonated form of the base; in water at 25 °C; from A. Fischer et al., J. Chem. Soc. 1964, 3591-3596

## Nc1ccncc1 [4-aminopyridine]
  pKa-value: 9.1
